Earlier results as cited in patent US9657007B2, “Substituted aminopyrimidine compounds and methods of use” (Calitor Sciences, LLC, priority 2013, dated 2017).

Legend:
[1] = tested on: murine model of asthma using ovalbumin-induced airway inflammation
PI3Kδ = conditions: potency range in words
[2] = tested on: mouse model of rheumatoid arthritis; conditions: in vivo
[3] = tested on: model of systemic lupus erythematosis; conditions: in vivo

Compound | activity against any protein kinases tested (protein kinases) | inflammation and disease in a murine model of asthma [1] | inhibits PI3Kδ (PI3Kδ) | efficacy in a mouse model of rheumatoid arthritis [2] | onset of disease in a model of systemic lupus erythematosis [3]
Cc1ccccc1-n1c(Cn2cnc3c(N)ncnc32)nc2cccc(C)c2c1=O [IC87114] | no activity | significantly ameliorate inflammation and disease | high nanomolar range (triple digit) |  | 
O=C1NC(=O)/C(=C\c2ccc3nccnc3c2)S1 [AS 605240] |  |  |  | efficacious | delay onset of disease
